Measured values published in PubChem BioAssay (NCI).
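Cultured in 96-well plates, cells were exposed to test compound for 48 hours across five concentrations. Here, GI50 denotes the concentration required for 50% inhibition of growth. Definition used: TGI = concentration required for complete inhibition of growth.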 Where a SMILES comes first, the peptide text is derived from it. [ ]: non-standard residue; d: D form. The star is where a group is joined. ξ: configuration not given here. X37 = O=C(OCc1ccccc1)[C@@H]1CCC[C@H]1N*; Fmoc = O=C(OCC1c2ccccc2-c2ccccc21)*; ξW = NC(Cc1c[nH]c2ccccc12)C(=O)O; ξF = NC(Cc1ccccc1)C(=O)O; Boc = CC(C)(C)OC(=O)*; ξK = NCCCCC(N)C(=O)O; ξT = CC(O)C(N)C(=O)O; tBu = CC(C)(C)*

What was measured:
Test in all cases: inhibition of tumour cell growth, NCI panel, 48 h
HCT-15 colon = system: HCT-15 colon
IGROV1 ovarian = system: IGROV1 ovarian
SF-295 CNS = system: SF-295 CNS
HOP-92 NSCLC = system: HOP-92 NSCLC
PC-3 prostate = system: PC-3 prostate
NCI/ADR-RES ovarian = system: NCI/ADR-RES ovarian
OVCAR-4 ovarian = system: OVCAR-4 ovarian
SF-539 CNS = system: SF-539 CNS
HT29 colon = system: HT29 colon
BT-549 breast = system: BT-549 breast

| SMILES | TGI (HCT-15 colon) | TGI (IGROV1 ovarian) | TGI (SF-295 CNS) | TGI (HOP-92 NSCLC) | TGI (PC-3 prostate) | TGI (NCI/ADR-RES ovarian) | TGI (OVCAR-4 ovarian) | TGI (SF-539 CNS) | TGI (HT29 colon) | TGI (BT-549 breast) | GI50 (IGROV1 ovarian) | GI50 (SF-295 CNS) | GI50 (HT29 colon) | GI50 (HOP-92 NSCLC) | GI50 (BT-549 breast) | GI50 (OVCAR-4 ovarian) |
| --- | --- | --- | --- | --- | --- | --- | --- | --- | --- | --- | --- | --- | --- | --- | --- | --- |
| Cc1cccc(Nc2cn(CCOc3ccccc3)c(=O)[nH]c2=O)c1 | > 100 µM | 54.9 µM | > 100 µM | 84 µM | 72.3 µM | 9.06 µM | > 100 µM |  |  |  |  |  |  |  |  |  |
| CC(=O)NC1C(OCC(=O)NC(C)C(=O)NC(CCC(=O)NCCCCCNc2ccc([N+](=O)[O-])c3[nH]c4ccccc4c(=O)c23)C(N)=O)C(O)C(CO)OC1(C)OCc1ccccc1 (stereo not given) | > 50 µM | > 50 µM | > 50 µM |  | > 50 µM | > 50 µM | > 50 µM | > 50 µM | > 50 µM | > 50 µM |  |  |  |  |  |  |
| C[Si](C)(C)C#C[I+]c1ccccc1 | 56.1 µM | > 100 µM | > 100 µM | > 100 µM |  |  | > 100 µM | 79.3 µM | > 100 µM |  |  |  |  |  |  |  |
| COc1ccc2cc(C(=O)NCCc3ccccc3)ccc2c1OC | > 100 µM | > 100 µM | > 100 µM | > 100 µM | > 100 µM | > 100 µM | > 100 µM | 70.3 µM | > 100 µM |  |  |  |  |  |  |  |
| N#Cc1nn(-c2ccc(Cl)cc2)c(N)c2c(=N)n3nc(-c4ccccc4)cc3nc12 | > 100 µM | > 32 µM | > 24.5 µM |  |  |  |  |  | > 32.8 µM |  |  |  |  |  |  |  |
| O=c1c(-c2ccccc2)c[nH]c2cc([N+](=O)[O-])c(/C(Cl)=C/c3ccccc3)cc12 | > 47.1 µM | > 38.6 µM | 26.5 µM | 10.6 µM |  | 25.5 µM | 8.64 µM | 27.7 µM | > 51.6 µM |  |  |  |  |  |  |  |
| CC1(c2cccc(C3CCC4(C=CC3=O)OCCO4)c2)OCCO1 (stereo not given) | 14.7 µM | 32.7 µM | > 56.7 µM | 17.8 µM | 31.1 µM | 31.5 µM | 18.1 µM | 28.5 µM | 25.8 µM |  |  |  |  |  |  |  |
| c1ccc(COc2nc3ccc(C45CC6CC(CC(C6)C4)C5)cc3[nH]2)cc1 | > 29.5 µM | > 100 µM | > 100 µM | 49.8 µM | > 100 µM | > 54.4 µM | > 100 µM |  | > 100 µM | > 100 µM |  |  |  |  |  |  |
| CCc1nnc2sc(-c3ccc(-c4ccc(Cl)cc4Cl)o3)nn12 | > 100 µM | > 100 µM | > 100 µM | > 100 µM | > 100 µM | > 100 µM | > 100 µM |  | > 100 µM | > 100 µM |  |  |  |  |  |  |
| OC(Cn1cncn1)(Cn1cncn1)c1ccc(Cl)cc1Cl | > 100 µM | > 100 µM | > 100 µM | > 100 µM |  |  | > 100 µM | > 100 µM | > 100 µM |  |  |  |  |  |  |  |
| Nc1nc(Cl)cc(NCC2(CO)CC(CCCCc3ccccc3)C2)n1 (stereo not given) | > 100 µM | > 100 µM | > 100 µM | > 100 µM | > 100 µM |  | > 100 µM | > 100 µM | 35.3 µM | > 100 µM |  |  |  |  |  |  |
| COc1cccc2c1C(=O)c1c(O)c3c(c(O)c1C2=O)C[C@@](O)(C(C)=O)C[C@@H]3OC1CC(N)C(O)C(C)O1 (stereo not given in full) | 8.07 µM [middle of 6 runs] |  |  |  |  |  |  |  |  |  | < 0.0374 µM | < 0.0147 µM | 0.0246 µM | < 0.0104 µM | 0.0482 µM | 0.0643 µM |
| CC(C)(C)NCC(O)COc1cccc2[nH]c(C#N)cc12 (stereo not given) | > 100 µM | > 100 µM | > 100 µM |  | > 100 µM | > 100 µM | > 100 µM | > 100 µM | > 100 µM | > 100 µM |  |  |  |  |  |  |
| Cc1[nH]n(C(=O)c2ccccc2O)c(=O)c1/C=C1\C(=O)C=Cc2ccccc21 | > 100 µM | 11.5 µM | 26.4 µM | 28.7 µM | 23 µM | 11 µM |  | 3.35 µM | > 81 µM | 73 µM |  |  |  |  |  |  |
| NC(=O)c1cc2ccccc2c(N=Nc2ccccc2)c1O | > 100 µM | > 100 µM | > 100 µM | > 100 µM | > 100 µM | > 100 µM | > 100 µM |  | > 100 µM | > 100 µM |  |  |  |  |  |  |
| CCOC(=O)Cc1csc(/N=C\c2c(O)c3ccccc3oc2=O)n1 | > 100 µM | > 100 µM | 68.2 µM | 47.3 µM | > 100 µM | 64 µM | > 100 µM | 56.7 µM | > 100 µM |  |  |  |  |  |  |  |
| CC(OC(C)(C)C)C(NC(=O)C(CCCCNC(=O)OC(C)(C)C)NC(=O)C(Cc1c[nH]c2ccccc12)NC(=O)C(Cc1ccccc1)NC(=O)OCC1c2ccccc2-c2ccccc21)C(=O)NC(Cc1ccccc1)C(=O)N[C@@H]1CCC[C@H]1C(=O)OCc1ccccc1 (stereo not given in full) (Fmoc-[ξF][ξW][ξK](Boc)[ξT](tBu)[ξF]-X37) | > 100 µM | > 100 µM | > 100 µM | > 100 µM | > 100 µM | > 100 µM | > 100 µM | > 100 µM | > 100 µM |  |  |  |  |  |  |  |
| Fc1ccc(C(=NCc2ccccc2)N2CCOCC2)cc1 | > 100 µM | > 100 µM | > 100 µM |  | > 100 µM | > 100 µM |  | > 100 µM | > 100 µM | > 100 µM |  |  |  |  |  |  |
| O=c1[nH]c2ccc(CC(=S)N3CCN(c4ccccc4)CC3)cc2s1 | > 100 µM | > 100 µM | > 100 µM |  | > 100 µM | 69.3 µM |  | > 100 µM | > 100 µM | > 100 µM |  |  |  |  |  |  |
| N=C(/C=C/c1ccc(-c2cn3cc(/C=C/C(=N)N4CCOCC4)ccc3n2)cc1)N1CCOCC1 | > 100 µM | > 100 µM | > 100 µM | > 100 µM | > 100 µM | > 100 µM | > 100 µM | > 100 µM |  | > 100 µM |  |  |  |  |  |  |
| CC(=O)O[C@H]1C(=O)[C@]2(C)[C@@H](OC(=O)OCC(O)CO)C[C@H]3OC[C@@]3(OC(C)=O)[C@H]2[C@H](OC(=O)c2ccccc2)[C@]2(O)C[C@H](OC(=O)[C@H](O)[C@@H](NC(=O)c3ccccc3)c3ccccc3)C(C)=C1C2(C)C (stereo not given in full) | 10.9 µM | > 57.7 µM |  | > 85.3 µM | > 70.8 µM | 4.94 µM | > 83.9 µM | < 0.01 µM |  | 22.9 µM |  |  |  |  |  |  |
| CCC1OC2C(CC=C(C)C)=C3OC(C)(O)C(C)(CC)C(O)C3=C3OC(=O)C=C1C32 (stereo not given) | > 100 µM |  | > 100 µM | 54.9 µM | > 100 µM | > 100 µM | > 100 µM | 53.6 µM |  | 71 µM |  |  |  |  |  |  |
